Test: Log P by HPLC on reversed phase columns, method [a] (EEC directive 79/831 Annex V.A8)
Type: physicochemical
Conditions: not given
Procedure, shortened: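 Reversed-phase HPLC with LC-UV detection per EEC directive 79/831 Annex V.A8, acidic eluent of 0.1% formic acid in water and acetonitrile, linear gradient 10% to 95% acetonitrile. Log P derived from retention times, calibrated against straight-chain alkan-2-ones (C3–C16) by linear interpolation.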

| Structure (SMILES) | chromatographic logP |
| --- | --- |
| CC(Nc1ncc(-c2nnc(C(F)F)o2)cn1)c1ccc(Cl)nc1 (racemic) [I.214, N-[(1RS)-1-(6-chloropyridin-3-yl)ethyl]-5-[5-(difluoromethyl)-1,3,4-oxadiazol-2-yl]pyrimidin-2-amine] | 2.27 |

Same assay, conditions: log P determined according to method [a] (HPLC on reversed phase columns)

| Structure (SMILES) | logP |
| --- | --- |
| CNC(=O)c1ccc(-c2nnc(C(F)F)o2)cn1 [Example I-033] | 1.32 |
| COCCNC(=O)c1ccc(-c2nnc(C(F)(F)F)o2)cc1 [Example I-020] | 2.04 |
| CC(C)(C)OC(=O)N1CCN(c2ccc(-c3nnc(C(F)F)o3)cn2)CC1 [Example I-058] | 3.25 |
| CC(=O)Nc1ccc(-c2nnc(C(F)F)o2)cn1 [Example I-034] | 1.32 |
| FC(F)c1nnc(-c2ccc(N3CCCCC3)nc2)o1 [Example I-040] | 2.72 |
| COCCNC(=O)c1ccc(-c2nnc(C(F)F)o2)cc1 [Example I-016] | 1.58 |
| CC1(NC(=O)c2ccc(-c3nnc(C(F)F)o3)cn2)CC1 [Example I-044] | 2.02 |
| COC(=O)Nc1ccc(-c2nnc(C(F)F)o2)cn1 [Example I-038] | 1.66 |
| O=C(NCC1CC1)c1ccc(-c2nnc(C(F)F)o2)cn1 [Example I-046] | 2.16 |
| FC(F)c1nnc(-c2ccc(C(F)(F)F)nc2)o1 [Example I-037] | 2.39 |
| O=C(Nc1ccccc1)Nc1ccc(-c2nnc(C(F)F)o2)cn1 [Example I-051] | 2.57 |
| FC(F)c1nnc(-c2ccc(-n3ccnn3)cc2)o1 [Example I-005] | 1.73 |
| CN(C(=O)c1ccc(-c2nnc(C(F)F)o2)cc1)c1ccccc1 [Example I-022] | 2.46 |
| O=C(Nc1ccc(F)cc1F)c1ccc(-c2nnc(C(F)(F)F)o2)cc1 [Example I-028] | 3.12 |
| CC(Nc1ncc(-c2nnc(C(F)F)o2)cn1)C1CC1 (stereo not drawn) [Example I-073] | 2.51 |
| COC(=O)c1ccc(-c2nnc(C(F)(F)F)o2)cc1 [Example I-006] | 2.97 |

The remaining lines, values ahead:

| logP | Structure (SMILES) |
| --- | --- |
| 2.51 | Fc1ccc(Oc2ncc(-c3nnc(C(F)F)o3)cn2)cc1 [Example I-098] |
| 2.64 | FC(F)c1nnc(-c2cnc(-c3cccs3)nc2)o1 [Example I-071] |
| 2.51 | Cc1ccccc1Nc1ncc(-c2nnc(C(F)F)o2)cn1 [Example I-086] |
| 0.75 | Nc1ncc(-c2nnc(C(F)F)o2)cn1 [Example I-059] |
| 3.70 | Fc1ccc(-c2ncc(-c3nnc(C(F)F)o3)cn2)cc1 [Example I-077] |

Same assay, conditions: reversed phase HPLC column; Method A: LC-UV, acidic range, 0.1% formic acid in water and acetonitrile; read-out: Log P

| chromatographic logP | Structure (SMILES) |
| --- | --- |
| 1.63 | NNC(=O)c1cnc(NC2(c3ccccc3)CCC2)nc1 [2-[(1-phenylcyclobutyl)amino]pyrimidine-5-carbohydrazide] |
| 3.53 | CCOC(=O)c1cnc(NC2(c3ccccc3)CCC2)nc1 [ethyl 2-[(1-phenylcyclobutyl)amino]pyrimidine-5-carboxylate] |
| 3.23 | COC(=O)c1ccc(-c2nnc(C(F)(F)F)s2)cc1 [I.011, methyl 4-[5-(trifluoromethyl)-1,3,4-thiadiazol-2-yl]benzoate] |

Same assay, conditions: reversed phase HPLC column; log P determined according to method [a] (HPLC on reversed phase columns); read-out: logP

| Structure (SMILES) | chromatographic logP |
| --- | --- |
| COC(=O)C1(Nc2ncc(-c3nnc(C(F)F)o3)cn2)CC1 [I.104, methyl 1-({5-[5-(difluoromethyl)-1,3,4-oxadiazol-2-yl]pyrimidin-2-yl}amino)cyclopropanecarboxylate] | 1.64 |
| CCOC(=O)C1(Nc2ncc(-c3nnc(C(F)F)o3)cn2)CC1 [I.117, ethyl 1-({5-[5-(difluoromethyl)-1,3,4-oxadiazol-2-yl]pyrimidin-2-yl}amino)cyclopropanecarboxylate] | 1.94 |

The remaining lines, values ahead:

| chromatographic logP | Structure (SMILES) |
| --- | --- |
| 3.28 | CCON(Cc1ccccc1)c1ncc(-c2nnc(C(F)F)o2)cn1 [I.148, N-benzyl-N-{5-[5-(difluoromethyl)-1,3,4-oxadiazol-2-yl]pyrimidin-2-yl}-O-ethylhydroxylamine] |
| 2.95 | FC(F)c1nnc(-c2cnc(NCc3ccccc3Cl)nc2)o1 [I.128, N-(2-chlorobenzyl)-5-[5-(difluoromethyl)-1,3,4-oxadiazol-2-yl]pyrimidin-2-amine] |
| 3.1 | FC(F)c1nnc(-c2cnc(Nc3ccccc3C3CC3)nc2)o1 [I.119, N-(2-cyclopropylphenyl)-5-[5-(difluoromethyl)-1,3,4-oxadiazol-2-yl]pyrimidin-2-amine] |
| 3.22 | Fc1ccccc1C1(Nc2ncc(-c3nnc(C(F)F)s3)cn2)CC1 [I.162, 5-[5-(difluoromethyl)-1,3,4-thiadiazol-2-yl]-N-[1-(2-fluorophenyl)cyclopropyl]pyrimidin-2-amine] |
| 2.57 | Cc1ccc(C2(Nc3ncc(-c4nnc(C(F)F)o4)cn3)COC2)cc1 [I.158, 5-[5-(difluoromethyl)-1,3,4-oxadiazol-2-yl]-N-[3-(4-methylphenyl)oxetan-3-yl]pyrimidin-2-amine] |

Same assay, conditions: reversed phase HPLC column; method [a], HPLC on reversed phase columns; read-out: logP

| Structure (SMILES) | chromatographic logP |
| --- | --- |
| CC(Nc1ncc(-c2nnc(C(F)F)o2)cn1)c1ncccn1 (racemic) [I.191, 5-[5-(difluoromethyl)-1,3,4-oxadiazol-2-yl]-N-[(1RS)-1-(pyrimidin-2-yl)ethyl]pyrimidin-2-amine] | 1.49 |
| CC(Nc1ncc(-c2nnc(C(F)F)o2)cn1)c1ccncc1 (racemic) [I.190, 5-[5-(difluoromethyl)-1,3,4-oxadiazol-2-yl]-N-[(1RS)-1-(pyridin-4-yl)ethyl]pyrimidin-2-amine] | 0.65 |

The next lines start with the values.

| chromatographic logP | Structure (SMILES) |
| --- | --- |
| 3.94 | CON(c1ncc(-c2nnc(C(F)F)o2)cn1)C(C)c1cccc(C(F)(F)F)c1 (racemic) [I.184, N-{5-[5-(difluoromethyl)-1,3,4-oxadiazol-2-yl]pyrimidin-2-yl}-O-methyl-N-{(1RS)-1-[3-(trifluoromethyl)phenyl]ethyl}hydroxylamine] |
| 4.09 | C#CCN(c1ncc(-c2nnc(C(F)F)o2)cn1)C1(c2ccccc2F)CC1 [I.241, 5-[5-(difluoromethyl)-1,3,4-oxadiazol-2-yl]-N-[1-(2-fluorophenyl)cyclopropyl]-N-(prop-2-yn-1-yl)pyrimidin-2-amine] |
| 3.43 | FC(F)c1nnc(-c2cnc(NC3(c4ccc(Cl)c(Cl)c4)CC3)nc2)o1 [I.252, N-[1-(3,4-dichlorophenyl)cyclopropyl]-5-[5-(difluoromethyl)-1,3,4-oxadiazol-2-yl]pyrimidin-2-amine] |
| 2.91 | CC(Nc1ncc(-c2nnc(C(F)F)o2)cn1)C1(C)CC1 (racemic) [I.186, 5-[5-(difluoromethyl)-1,3,4-oxadiazol-2-yl]-N-[(1RS)-1-(1-methylcyclopropyl)ethyl]pyrimidin-2-amine] |
| 3.01 | CC(Nc1ncc(-c2nnc(C(F)F)o2)cn1)c1ccc(F)cc1F (racemic) [I.215, 5-[5-(difluoromethyl)-1,3,4-oxadiazol-2-yl]-N-[(1RS)-1-(2,4-difluorophenyl)ethyl]pyrimidin-2-amine] |
| 3.79 | CC(C)(Cc1ccc(F)cc1)Nc1ncc(-c2nnc(C(F)F)o2)cn1 [I.223, 5-[5-(difluoromethyl)-1,3,4-oxadiazol-2-yl]-N-[1-(4-fluorophenyl)-2-methylpropan-2-yl]pyrimidin-2-amine] |
| 3.81 | FC(F)c1nnc(-c2cnc(NC3(c4ccccc4Cl)CCC3)nc2)o1 [I.174, N-[1-(2-chlorophenyl)cyclobutyl]-5-[5-(difluoromethyl)-1,3,4-oxadiazol-2-yl]pyrimidin-2-amine] |
| 3.52 | FC(F)c1nnc(-c2cnc(NC(c3ccccc3)c3ccccc3)nc2)o1 [I.238, 5-[5-(difluoromethyl)-1,3,4-oxadiazol-2-yl]-N-(diphenylmethyl)pyrimidin-2-amine] |
| 3.62 | FC(F)c1nnc(-c2cnc(NC3(c4cccc(Oc5ccccc5)c4)CC3)nc2)o1 [I.265, 5-[5-(difluoromethyl)-1,3,4-oxadiazol-2-yl]-N-[1-(3-phenoxyphenyl)cyclopropyl]pyrimidin-2-amine] |
| 2.91 | FC(F)Oc1cccc(C2(Nc3ncc(-c4nnc(C(F)F)o4)cn3)CC2)c1 [I.246, N-{1-[3-(difluoromethoxy)phenyl]cyclopropyl}-5-[5-(difluoromethyl)-1,3,4-oxadiazol-2-yl]pyrimidin-2-amine] |
| 1.38 | FC(F)c1nnc(-c2cnc(NC3(c4ccccn4)CCCC3)nc2)o1 [I.219, 5-[5-(difluoromethyl)-1,3,4-oxadiazol-2-yl]-N-[1-(pyridin-2-yl)cyclopentyl]pyrimidin-2-amine] |
| 2.95 | Cc1cccc(C2(Nc3ncc(-c4nnc(C(F)F)o4)cn3)CC2)c1 [I.202, 5-[5-(difluoromethyl)-1,3,4-oxadiazol-2-yl]-N-[1-(3-methylphenyl)cyclopropyl]pyrimidin-2-amine] |
| 4.35 | FC(F)c1nnc(-c2cnc(NC3(c4cccc(Cl)c4)CCCCC3)nc2)o1 [I.258, N-[1-(3-chlorophenyl)cyclohexyl]-5-[5-(difluoromethyl)-1,3,4-oxadiazol-2-yl]pyrimidin-2-amine] |
| 4.4 | Fc1ccccc1C1(N(CC(F)F)c2ncc(-c3nnc(C(F)F)o3)cn2)CC1 [I.261, N-(2,2-difluoroethyl)-5-[5-(difluoromethyl)-1,3,4-oxadiazol-2-yl]-N-[1-(2-fluorophenyl)cyclopropyl]pyrimidin-2-amine] |
| 2.91 | FC(F)Oc1ccc(C2(Nc3ncc(-c4nnc(C(F)F)o4)cn3)CC2)cc1 [I.247, N-{1-[4-(difluoromethoxy)phenyl]cyclopropyl}-5-[5-(difluoromethyl)-1,3,4-oxadiazol-2-yl]pyrimidin-2-amine] |
| 3.11 | FC(F)c1nnc(-c2cnc(NC3(c4cccc(Cl)c4)CC3)nc2)o1 [I.227, N-[1-(3-chlorophenyl)cyclopropyl]-5-[5-(difluoromethyl)-1,3,4-oxadiazol-2-yl]pyrimidin-2-amine] |
| 4.16 | FC(F)c1nnc(-c2cnc(NC3(c4ccc(C(F)(F)F)cc4)CCCC3)nc2)o1 [I.266, 5-[5-(difluoromethyl)-1,3,4-oxadiazol-2-yl]-N-{1-[4-(trifluoromethyl)phenyl]cyclopentyl}pyrimidin-2-amine] |
